Data taken from patent US20160362416A1, “ANTIVIRAL COMPOUNDS” (Gilead Sciences, Inc., priority 2012, published 2016).

What was measured:
[1] = tested on: stable HCV 1b RLuc replicon cells (genotype 1b Con1 replicon); assay: HCV genotype 1b RLuc replicon reporter assay; format: cell-based; settings: Hepatitis C virus; stable genotype 1b Con1 RLuc replicon cells, 72 hours
Procedure, shortened: (§1)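 Stable 1b Con1 RLuc replicon cells, or Huh-Lunet cells transiently transfected with chimeric replicons (Con1 backbone carrying 3a S52 or 4a ED43 NS5A; JFH-1 backbone carrying 2b MD2b-1 NS5A, M31), treated with 3-fold dilutions for 72 h. Renilla luciferase read after lysis; EC50 by non-linear regression.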

[2] = tested on: stable HCV 1a RLuc replicon cells (genotype 1a H77 replicon); assay: HCV genotype 1a RLuc replicon reporter assay; format: cell-based; settings: Hepatitis C virus; stable genotype 1a H77 RLuc replicon cells, 72 hours
[3] = tested on: NS5A chimeric genotype 2a JFH-1 replicon with genotype 2b MD2b-1 strain NS5A gene (M31); assay: HCV genotype 2b NS5A chimeric replicon assay, stable (s); format: cell-based; settings: Hepatitis C virus, 72 h, read-out: 2b (s) (nM)
[4] = tested on: NS5A chimeric genotype 1b Con1 replicon with genotype 3a S52 strain NS5A gene; assay: HCV genotype 3a NS5A chimeric replicon assay; format: cell-based; settings: Hepatitis C virus, 72 h, read-out: 3a (nM)
Procedure, shortened: as §1

[5] = tested on: Q30E in genotype 1a NS5A replicon; assay: Resistance mutant replicon assay, genotype 1a NS5A Q30E; format: cell-based, HCV; settings: Hepatitis C virus, read-out: 1a Q30E (nM)
Protocol: (§2) Evaluation of cell-based anti-HCV activity: Antiviral potency (EC50) was determined using a Renilla luciferase (RLuc)-based HCV replicon reporter assay. To perform the assay for genotype 1 and 2a JFH-1, stable HCV 1a RLuc replicon cells (harboring a dicistronic genotype 1a H77 replicon that encodes a RLuc reporter), stable HCV lb RLuc replicon cells (harboring a dicistronic genotype 1b Conl replicon that encodes a RLuc reporter), or stable HCV 2a JFH-1 Rluc replicon cells (harboring a dicistronic genotype 2a JFH-1 replicon that encodes a RLuc reporter; with L31 present in NS5A) were dispensed into 384-well plates for EC50 assays. To perform the assay for genotype 2a (with M31 present in NS5A) or 2b, NS5A chimeric genotype 2a JFH-1 replicons that encodes a RLuc-Neo reporter and either genotype 2a J6 strain NS5A gene or genotype 2b MD2b-1 strain NS5A gene (both with M31 present) respectively, were either transiently transfected (t) into Huh-Lunet cells or were established as stably replicating replicon cells (s) is provided. Either cells were dispensed into 384-well plates for EC50 assays. To perform the assay for genotype 3 and 4, NS5A chimeric genotype 1b Conl replicons that encodes a Pi-RLuc reporter and either genotype 3a S52 strain NS5A gene or genotype 4a ED43 strain NS5A gene respectively, were transiently transfected (t) into Huh-Lunet cells, which were subsequently dispensed into 384-well plates. Compounds were dissolved in DMSO at a concentration of 10 mM and diluted in DMSO either manually or using an automated pipeting instrument. Serially 3-fold diluted compounds were either manually mixed with cell culture media and added to the seeded cells or directly added to the cells using an automated instrument. DMSO was used as a negative (solvent; no inhibition) control, and the protease inhibitor ITMN-191 was included at a concentration >100×EC50 as a positive control. 72 hours later, cells were lysed and Renilla luciferase activity quantified as recommended by the manufacturer (Promega-Madison, Wis.). Non-linear regression was performed to calculate EC50 values.
(§3) To determine the antiviral potency (EC50) against resistance mutants, resistance mutations, including M28T, Q30R, Q30H, Q30E, L31M, Y93C, Y93H, and Y93N in genotype 1a NS5A, Y93H and L31V/Y93H in genotype 1b NS5A, and Y93H for in genotype 3a NS5A, were introduced individually into either 1a Pi-Rluc or 1b Pi-Rluc replicons by site directed mutagenesis. Replicon RNA of each resistant mutant was transiently transfected into Huh-7-derived cured-51 cells and antiviral potency was determined on these transfected cells as described above.

[6] = tested on: Y93H in genotype 1a NS5A replicon; assay: Resistance mutant replicon assay, genotype 1a NS5A Y93H; format: cell-based, HCV; settings: Hepatitis C virus, read-out: 1a Y93H (nM)
Protocol: as §2, §3

[7] = tested on: Y93N in genotype 1a NS5A replicon; assay: Resistance mutant replicon assay, genotype 1a NS5A Y93N; format: cell-based, HCV; settings: Hepatitis C virus, read-out: 1a Y93N (nM)
Protocol: as §2, §3

[8] = tested on: NS5A chimeric genotype 1b Con1 replicon with genotype 4a ED43 strain NS5A gene; assay: HCV genotype 4a NS5A chimeric replicon assay; format: cell-based; settings: Hepatitis C virus, 72 h, read-out: 4a (s) (nM)
[9] = tested on: Y93H in genotype 3a NS5A replicon; assay: Resistance mutant replicon assay, genotype 3a NS5A Y93H; format: cell-based, HCV; settings: Hepatitis C virus, read-out: 3a Y93H (nM)
Protocol: as §2, §3

[10] = tested on: stable HCV 2a JFH-1 Rluc replicon cells (L31 present in NS5A); assay: HCV genotype 2a JFH-1 RLuc replicon reporter assay; format: cell-based; settings: Hepatitis C virus, 72 h, read-out: 2a JFH (nM)
[11] = tested on: NS5A chimeric genotype 2a JFH-1 replicon with genotype 2a J6 strain NS5A gene (M31); assay: HCV genotype 2a J6 NS5A chimeric replicon assay, transient (t); format: cell-based; settings: Hepatitis C virus, 72 h, read-out: 2a J6 (t) (nM)
[12] = tested on: NS5A chimeric genotype 2a JFH-1 replicon with genotype 2b MD2b-1 strain NS5A gene (M31); assay: HCV genotype 2b NS5A chimeric replicon assay, transient (t); format: cell-based; settings: Hepatitis C virus, 72 h, read-out: 2b (t) (nM)
Protocol: as §2

SMILES	EC50 [1]	EC50 [2]	EC50 [3]	EC50 [4]	EC50 [5]	EC50 [6]	EC50 [7]	EC50 [8]	EC50 [9]	EC50 [10]	EC50 [11]	EC50 [12]
COC(=O)N[C@H](C(=O)N1[C@H](c2ncc(-c3ccc4c(c3)COc3cc5c(ccc6nc([C@@H]7CC[C@H](C)N7C(=O)[C@@H](NC(=O)OC)C7CCOCC7)[nH]c65)cc3-4)[nH]2)C[C@@H]2CCC[C@@H]21)C(C)C [Comp 8, reference compound]	40 pM	28 pM	0.113 nM	0.071 nM	0.979 nM	1.9 nM	4.58 nM					
COC(=O)N[C@H](C(=O)N1[C@@H](C)CC[C@H]1c1ncc(-c2ccc3c(c2)COc2cc4c(ccc5nc([C@@H]6C[C@H](C)CN6C(=O)[C@@H](NC(=O)OC)C6CCOCC6)[nH]c54)cc2-3)[nH]1)C(C)C [Comp 13, reference compound]	48 pM	25 pM	0.048 nM		0.371 nM	1.07 nM	2.13 nM	4.4 nM	4.4 nM			
CC[C@H]1C[C@@H](c2ncc(-c3ccc4c(c3)COc3cc5c(ccc6nc([C@@H]7CC[C@H](C)N7C(=O)[C@@H](NC(=O)OC)C(C)C)[nH]c65)cc3-4)[nH]2)N(C(=O)[C@@H](NC(=O)OC)C2C[C@@H](C)O[C@H](C)C2)C1 (stereo partly drawn) [Example AE, Methyl [(1S)-1-[(2R,6R)-2,6-dimethyltetrahydro-2H-pyran-4-yl]-2-{(2S,4S)-4-ethyl-2-[5-(2-{(2S,5S)-1-[N-(methoxycarbonyl)-L-valyl]-5-methylpyrrolidin-2-yl}-1,11-dihydroisochromeno[4′,3′:6,7]naphtho[1,2-d]imidazol-9-yl)-1H-imidazol-2-yl]pyrrolidin-1-yl}-2-oxoethyl]carbamate]	22 pM	24 pM		0.027 nM		0.23 nM	1.12 nM	0.011 nM	6.93 nM	0.012 nM	0.042 nM	0.038 nM
COC(=O)N[C@H](C(=O)N1[C@@H](C)CC[C@H]1c1ncc(-c2ccc3c(c2)COc2cc4c(ccc5nc([C@@H]6C[C@H](C)CN6C(=O)[C@@H](NC(=O)OC)C6C[C@@H](C)O[C@H](C)C6)[nH]c54)cc2-3)[nH]1)C(C)C (stereo partly drawn) [Example AV, methyl {(2S)-1-[(2S,5S)-2-(5-{2-[(2S,4S)-1-{(2S)-2-[(2R,6R)-2,6-dimethyltetrahydro-2H-pyran-4-yl]-2-[(methoxycarbonyl)amino]acetyl}-4-methylpyrrolidin-2-yl]-1,11-dihydroisochromeno[4′,3′:6,7]naphtho[1,2-d]imidazol-9-yl}-1H-imidazol-2-yl)-5-methylpyrrolidin-1-yl]-3-methyl-1-oxobutan-2-yl}carbamate]	36 pM	36 pM		0.029 nM		0.14 nM	1.05 nM	0.013 nM	2.39 nM	0.011 nM	0.008 nM	0.015 nM
COC(=O)N[C@H](C(=O)N1[C@@H](C)CC[C@H]1c1ncc(-c2ccc3c(c2)COc2cc4c(ccc5nc([C@@H]6CCCN6C(=O)[C@@H](NC(=O)OC)C6C[C@@H](C)O[C@H](C)C6)[nH]c54)cc2-3)[nH]1)C(C)C (stereo partly drawn) [Example AW, methyl {(2S)-1-[(2S,5S)-2-(5-{2-[(2S)-1-{(2S)-2-[(2R,6R)-2,6-dimethyltetrahydro-2H-pyran-4-yl]-2-[(methoxycarbonyl)amino]acetyl}pyrrolidin-2-yl]-1,11-dihydroisochromeno[4′,3′:6,7]naphtho[1,2-d]imidazol-9-yl}-1H-imidazol-2-yl)-5-methylpyrrolidin-1-yl]-3-methyl-1-oxobutan-2-yl}carbamate]	70 pM	29 pM		0.015 nM		0.704 nM	1.47 nM	0.008 nM	1.51 nM	0.011 nM	0.021 nM	0.029 nM
CC[C@H](C)[C@H](NC(=O)OC)C(=O)N1[C@H](c2ncc(-c3ccc4c(c3)COc3cc5c(ccc6nc([C@@H]7CC[C@H](C)N7C(=O)[C@@H](NC(=O)OC)C7C[C@@H](C)O[C@H](C)C7)[nH]c65)cc3-4)[nH]2)C[C@@H]2CCC[C@@H]21 (stereo partly drawn) [Example BG, methyl{(2S,3S)-1-[(2S,3aS,6aS)-2-(5-{2-[(2S,5S)-1-{(2S)-2-[(2R,6R)-2,6-dimethyltetrahydro-2H-pyran-4-yl]-2-[(methoxycarbonyl)amino]acetyl}-5-methylpyrrolidin-2-yl]-1,11-dihydroisochromeno[4′,3′:6,7]naphtho[1,2-d]imidazol-9-yl}-1H-imidazol-2-yl)hexahydrocyclopenta[b]pyrrol-1(2H)-yl]-3-methyl-1-oxopentan-2-yl}carbamate]	18 pM	20 pM	0.039 nM	0.028 nM		0.364 nM	0.883 nM	0.017 nM	5.58 nM	0.017 nM	0.045 nM	
COC(=O)N[C@H](C(=O)N1[C@H](c2nc3ccc4cc5c(cc4c3[nH]2)OCc2cc(-c3cnc([C@@H]4CC[C@H](C)N4C(=O)[C@@H](NC(=O)OC)C4C[C@@H](C)O[C@H](C)C4)[nH]3)ccc2-5)C[C@@H]2CCC[C@@H]21)C(C)C (stereo partly drawn) [Example BI, methyl{(2S)-1-[(2S,3aS,6aS)-2-(9-{2-[(2S,5S)-1-{(2S)-2-[(2R,6R)-2,6-dimethyltetrahydro-2H-pyran-4-yl]-2-[(methoxycarbonyl)amino]acetyl}-5-methylpyrrolidin-2-yl]-1H-imidazol-5-yl}-1,11-dihydroisochromeno[4′,3′:6,7]naphtho[1,2-d]imidazol-2-yl)hexahydrocyclopenta[b]pyrrol-1(2H)-yl]-3-methyl-1-oxobutan-2-yl}carbamate]	24 pM	12 pM	0.033 nM	0.017 nM		0.184 nM	0.466 nM	0.011 nM	3.45 nM	0.011 nM	0.022 nM	
